For assay [1], the system named is infantile hemangioma. Kind of assay: Topical treatment of infantile hemangioma in a child. In kind it is in vivo, human. The following applies: cream 2.5%, topical twice a day, 1, 2 and 3 months, one child. From the text: Photographs of a child showing the effects of the topical treatment with a cream comprising 2,5-dihydroxybenzenesulfonic (DHBS) (2.5%) in a baby suffering infantile hemangioma.
The cream comprising 2,5-dihydroxybenzene sulfonic (2.5%) was topically applied twice a day for 3 months on the face of a child suffering from infantile hemangioma.

The test system of assay [2] is skeletal muscle lesions. Kind of assay: Oral treatment of skeletal muscle and tendon lesions in patients (MRI, function). In kind it is in vivo, human. The protocol: A and B are, respectively, front and cross sectional magnetic resonance images (MRI) showing the breaking of the left quadriceps in a patient, immediately before treatment. The presence of a large hematoma, indicated by arrows, may be observed. C and D are, respectively, front and cross sectional MRI showing the quadriceps of the same patient after treatment with 2,5-dihydroxybenzene sulfonic acid (DHBS) (500 mg/day p.o. for two weeks). […] 1 indicates the femur and 2 indicates the femoral vessels.
A is a Magnetic Resonance Image (MRI) of a patient showing the breaking of the right arm brachial biceps one day after the lesion and immediately before the treatment.
Images show the clinical manifestation of the patient referred to in FIG. 12. Before the treatment (1 day after the lesion) a large hematoma (A) and limited flexion (B) and extension (C) of the elbow are observed.
It is a Magnetic Resonance Image (MRI) of a patient showing the breaking of left leg semitendinosus muscle 9 days after the lesion and immediately before starting the treatment.
A is a Magnetic Resonance Image (MRI) of a patient showing the Achilles tendon rupture just before being treated.
The capacity of a 2,5-dihydroxybenzene derivative, the 2,5-dihydroxybenzene sulfonic acid (DHBS) to effectively treat skeletal muscle lesions is shown herein. The efficacy is evident, not only in the images of conventional diagnosis that show the recovery of the muscular damage, but also there is a clear functional recovery of the affected limb.
The first patient's left quadriceps was broken by practicing sports. […] At that moment, the patient starts a daily oral treatment with 500 mg of 2,5-dihydroxybenzene sulfonic acid (DHBS) for two weeks. […] An observation that may be applied to the other cases that support this example.
Other patient has an hematoma and muscular breaking of the brachial biceps, as shown in the magnetic resonance image (MRI) of FIG. 12A. The hematoma can be appreciated externally (FIG. 13A) and the lesion, produced by professional practice (dancing) the day before the consultation, limits the elbow flexion (FIG. 13B) and extension (FIG. 13C).

The test system of assay [3] is human retinal endothelial cells (HREC). The experiment in a line: Proliferation of human retinal endothelial cells (HREC, crystal violet). The assay is classed as cell-based. Particulars: calcium 2,5-dihydroxybenzenesulfonate, 100 μM, 72 h, for comparison. The method, then:
(§1) 2A-5HBS was administered or not administered (control) after seeding the HREC in 24-well plates (7.5×10^3 per well) until they were fixed after 72 hours. The data are expressed as the mean±SEM of the percentage of the absorbance at 595 nm obtained in the control cultures, which is proportional to the number of cells stained with crystal violet. The data were obtained from 6 cultures for each treatment in two separate experiments. The white bar represents the value of the control cells, whereas the gray bars show the value in the presence of 2A-5HBS (500 and 1000 μM). * indicates p<0.05, *** p<0.001 with respect to the control by means of a single-factor analysis of variance (ANOVA) followed by a Student-Newman-Keuls post-analysis.
as §1, with “5A-2HBS” for “2A-5HBS”, “striped” for “gray”, “***” for “*”, “indicates” for “indicates p<0.05, ***”
2,5-DHCME was administered or not administered (control) after seeding the HREC in 24-well plates (7.5×10^3 per well) until they were fixed after 72 hours. The data are expressed as the mean±SEM of the percentage of the absorbance at 595 nm obtained in the control cultures, which is proportional to the number of cells stained with crystal violet. The data were obtained from 6 cultures for each treatment in two separate experiments.
Primary cultures of human retinal endothelial cells (HREC) were used. Cells were obtained from Cell Systems (Virginia, USA) and subcultured with CSC complete medium (Cell Systems). Cells at 2 to 5 passages were seeded in 24-well plates at 7,500 cells/well density and, once attached, the cells were treated o not treated (controls) with 2A-5HBS (500 and 1000 μM) or 5A-2HBS (500 and 1000 μM) and they were allowed to proliferate for 72 hours, with daily medium changes. After that, the proliferation of HREC was evaluated by staining the fixed cells with crystal violet. The number of cells is proportional to the amount of retained dye, which was spectrophotometrically determined by measuring absorbance at 595 nm after removing the dye from the cells. Data are expressed as the percentage of absorbance at 595 nm obtained in control conditions. Data were obtained from two different experiments performed in triplicate.
Primary cultures of human retinal endothelial cells (HREC) were used. Cells were obtained from Cell Systems (Virginia, USA) and subcultured with CSC complete medium (Cell Systems). […] After that, the proliferation of HREC was evaluated by staining the fixed cells with crystal violet. The number of cells is proportional to the amount of retained dye, which was spectrophotometrically determined by measuring absorbance at 595 nm after removing the dye from the cells. Data are expressed as the percentage of absorbance at 595 nm obtained in control conditions. […]

The mark [4] stands for this setting: brachial biceps breaking, 1500 mg/day p.o., 20 days, one patient.
[5] abbreviates: left quadriceps breaking, 500 mg/day p.o., two weeks, one patient.

“Also recorded” adds a separate entry of the source.

As to `O=S(=O)(O)c1cc(O)ccc1O` [DHBS, 2,5-dihydroxybenzenesulfonic acid], the hemangioma lesion appearance result in assay [1] was “substantial recovery of the lesion”. In assay [2] (1500 mg/day p.o., 11 days, started 9 days after lesion, one patient), the “semitendinosus muscle lesion on MRI” value was “reduced the muscular lesion; also recorded: remarkable reduction in the size of the lesion”. In addition, the “Achilles tendon lesion on MRI” value in assay [2] (1500 mg/day p.o., two months, one patient) is listed as “marked reduction of said lesion; also recorded: remarkable reduction in the size of the lesion”. In addition, in assay [2] (setting [4]), the “elbow flexion and extension” value was “recovers the functionality of the elbow flexion and extension; also recorded: have been recovered”; the “size of the lesion and of the hematoma, brachial biceps” value is “markedly reduces the size of the lesion and of the hematoma; also recorded: remarkable reduction in the size of the lesion; also recorded: the hematoma has disappeared”. Moreover, in assay [2] (setting [5]), the “quadriceps hematoma on MRI” value is on record as “can no longer be observed; also recorded: the hematoma has disappeared” and the “quadriceps lesion on MRI” value is recorded as “recovery of the lesion in the quadriceps”. Also, the “period to functional recovery and resolution vs conventional treatments (antiinflammatories)” value in assay [2] (quadriceps breaking, 500 mg/day p.o., two weeks) is listed as “shorter period”. For the same compound, in assay [2] (quadriceps breaking, 500 mg/day p.o., two weeks, one patient), the “flexion and extension capacity of the leg” value was “able to extend the left leg almost completely; also recorded: almost complete flexion (A) and extension (B) capacity”. The HREC proliferation result in assay [3] is “failed to significantly affect”.

Values taken from US9060966B2, “Use of 2,5-dihydroxybenzene derivatives for the treatment of arthritis and pain” (priority 2006, dated 2015).
